The results in this text go back to patent US20240309018A1, “THIAZOLE-LACTAM-SPIROHETEROCYCLIC COMPOUNDS AND APPLICATIONS THEREOF” (D3 BIO (WUXI) CO., LTD, priority 2021, published 2024).

A short description of series [1]: Hygroscopicity study (DVS). Type of series: physicochemical. The note with it: 25° C. and 80% RH. The procedure: Dynamic vapor adsorption (DVS) curves were collected on DVS Intrinsic plus of Surface Measurement Systems (SMS) company. The relative humidity at 25° C. was corrected with the deliquescent points of LiCl, Mg(NO3)2 and KCl.
[…]

Series [2] can be described thus: Solid stability test of the crystal form. Type of series: physicochemical. As to the method:
The sample was placed at the bottom of an HPLC vial to form a thin layer. The samples were placed in a chamber at a constant temperature and humidity of 60° C./75% RH conditions and in a 92.5% RH desiccator. The bottles were sealed with a sealing film. Some small holes were punched in the sealing film to ensure that the samples were fully in contact with the ambient air. The caps of the sample bottles placed at 60° C. under light and light-shielding conditions (samples under light-shielding conditions were wrapped in tin foil) were tighten.

Consider `Cc1cccc(CN2C(=O)c3nc(-c4nc(Nc5ccnn5C)ncc4C)sc3C23COC3)n1` [crystal form A of WX001], for which, in series [1], the hygroscopicity classification entry is on record as “almost no hygroscopicity”. For the same molecule, the “ΔW, weight increase by moisture absorption” value in series [1] (DVS) is 0.1134%. The Crystal form result is given as “Crystal form A” in series [2] (0 day); “Crystal form A” in series [2] (60° C., 5 days); “Crystal form A” in series [2] (60° C., 10 days); “Crystal form A” in series [2] (60° C./75% RH, 1 month); “Crystal form A” in series [2] (60° C./75% RH, 2 months); “Crystal form A” in series [2] (60° C./75% RH, 3 months). Moreover, the Crystal form result in series [2] (92.5% RH, 5 days) is “Crystal form A”; in series [2] (92.5% RH, 10 days) it was “Crystal form A”; in series [2] (Control group of light-shielding, taking points simultaneously with visible light + UV group), “Crystal form A”; in series [2] (Control group of light-shielding, taking points simultaneously with visible light group) it was “Crystal form A”; in series [2] (Visible light (ICH conditions), reaching illumination of 1.2E+06 Lux · hrs) it was “Crystal form A”; in series [2] (Visible light + UV (ICH conditions), reaching illumination of 200 W · hrs/m^2), “Crystal form A”. For the same molecule, in series [2] (all conditions of Table 15), the “solid stability, conclusion” value is “good stability”.
